Measurements: patent US11059815B2, “Synthesis of small molecule histone deacetylase 6 degraders, compounds formed thereby, and pharmaceutical compositions containing them” (Wisconsin Alumni Research Foundation, priority 2018, dated 2021)

Columns and labels:
[1] = target: T1, HDAC6 (Mus musculus, UniProt Q9Z2V5); experiment: In-cell ELISA of HDAC6 in mice immortalized cell line 4935; format: cell-based; details: mice immortalized cell line 4935, in-cell ELISA
T1 construct: endogenous in cells; host or cells: mouse immortalized cell line 4935
T1 sequence (Q9Z2V5 1-1149): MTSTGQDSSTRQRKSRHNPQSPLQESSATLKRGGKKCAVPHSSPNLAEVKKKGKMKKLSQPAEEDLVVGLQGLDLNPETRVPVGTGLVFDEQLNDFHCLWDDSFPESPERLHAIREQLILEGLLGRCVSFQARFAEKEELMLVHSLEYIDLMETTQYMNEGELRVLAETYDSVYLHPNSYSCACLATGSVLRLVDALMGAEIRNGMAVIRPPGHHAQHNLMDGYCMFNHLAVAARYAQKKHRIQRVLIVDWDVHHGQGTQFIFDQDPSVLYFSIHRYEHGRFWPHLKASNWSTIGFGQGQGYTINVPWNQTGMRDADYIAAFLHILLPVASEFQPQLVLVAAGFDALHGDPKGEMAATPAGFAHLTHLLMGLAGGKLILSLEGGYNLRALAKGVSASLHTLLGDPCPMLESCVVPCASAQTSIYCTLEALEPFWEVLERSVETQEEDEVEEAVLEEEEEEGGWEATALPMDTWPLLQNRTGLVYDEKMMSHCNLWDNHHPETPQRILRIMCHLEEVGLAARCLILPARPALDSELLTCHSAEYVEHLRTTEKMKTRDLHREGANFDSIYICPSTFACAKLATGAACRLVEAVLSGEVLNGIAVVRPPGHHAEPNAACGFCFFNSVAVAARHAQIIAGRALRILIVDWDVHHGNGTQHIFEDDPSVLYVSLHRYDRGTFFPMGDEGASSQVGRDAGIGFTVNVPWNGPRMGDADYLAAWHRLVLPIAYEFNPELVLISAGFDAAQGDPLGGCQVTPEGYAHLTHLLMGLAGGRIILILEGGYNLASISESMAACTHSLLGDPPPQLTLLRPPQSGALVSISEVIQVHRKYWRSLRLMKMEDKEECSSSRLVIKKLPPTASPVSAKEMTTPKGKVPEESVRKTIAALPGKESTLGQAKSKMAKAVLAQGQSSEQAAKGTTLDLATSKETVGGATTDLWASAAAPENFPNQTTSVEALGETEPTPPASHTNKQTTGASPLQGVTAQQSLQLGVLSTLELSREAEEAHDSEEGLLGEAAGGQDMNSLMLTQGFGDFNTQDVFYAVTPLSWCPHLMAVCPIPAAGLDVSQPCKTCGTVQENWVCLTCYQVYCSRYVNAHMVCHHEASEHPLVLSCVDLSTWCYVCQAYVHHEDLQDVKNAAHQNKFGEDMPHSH
Protocol: FIG. 19 is a dose-response curve for HDAC6 expression as a function of concentration for compounds 2 and 3j from Part 2 of the Example section.
The degradation efficiency of HDAC6 induced by 2 and 3j in mice immortalized cell line 4935 was also tested using western blot and in-cell ELISA. In concentrations ranging from 10 nM to 10 μM, VHL-based degrader 3j induced more HDAC6 degradation and tubulin acetylation than CRBN-based degrader 2 (data not shown). […] The maximal degradation percentage for HDAC6 induced by 3j is 56.8%, which is better than 45.3% of Dmax induced by compound 2. […] The VHL E3 ligase-based degrader 3j may have advantages over CRBN-based degrader 2 in animal studies using mice as the model system.

[2] = tested on: HDAC6 and related genes; experiment: qRT-PCR of mRNA level of HDAC6 and related genes; format: cell-based, human; details: 6 h treatment
From the text: To support the involvement of ubiquitination-proteasome system for the decrease of HDAC6 protein level, the degrader was co-treated with binding competitors or pathway blockers. […] Moreover, it also confirmed the role of the pomalidomide moiety in modulating IKZFs. […] Additionally, proteasome inhibitor MG132 and Bortezomib were used to block the down-stream proteasome degradation. […] Acetylated tubulin level was suppressed as well. This confirms that HDAC6 degradation is responsible for the acetylation of its substrates rather than inhibition by the “warhead” moiety. To exclude the possible transcriptional impact by degraders, qRT-PCR was used to examine the mRNA level of HDAC6 and related genes (data not shown). […] This is consistent with the hypothesis that the cellular knockdown of HDAC6 is due to direct protein degradation, not by transcriptional downregulation.
After treatment, cells were harvested and washed with cold PBS twice. […] The concentration of RNA was measured by Plate Reader. […] Ct value at automatically selected threshold was reported and calculated by 2^−ΔΔCt method. (Livak, K. J.; Schmittgen, T. D. “Analysis of Relative Gene Expression Data Using Real-Time Quantitative PCR and the 2 C T Method” METHODS 2001, 25, 402-408. The bar graph was generated and by GraphPad Prism.

| Compound | DC50 [1] [nM] | Dmax ([1]; read-out: maximal degradation percentage for HDAC6 (Dmax)) [%] | effect on mRNA level of HDACs and IKZFs [2] |
| --- | --- | --- | --- |
| CCCCN(Cc1ccc(C(=O)NO)cc1)C(=O)Nc1ccc(OCCCCCn2cc(CNc3cccc4c3C(=O)N(C3CCC(=O)NC3=O)C4=O)nn2)cc1 (stereo not drawn) [Compound 2] | ~17 | 45.3 |  |
| CCCCN(Cc1ccc(C(=O)NO)cc1)C(=O)Nc1ccc(OCCCCCn2cc(CNc3cccc4c3C(=O)N(C3CCC(=O)NC3=O)C4=O)nn2)cc1 (stereo not drawn) [Compound 12d, 4-((1-butyl-3-(4-((5-(4-(((2-(2,6-dioxopiperidin-3-yl)-1,3-dioxoisoindolin-4-yl)amino)methyl)-1H-1,2,3-triazol-1-yl)pentyl)oxy)phenyl)ureido)methyl)-N-hydroxybenzamide] |  |  | Little to no effects |
